Laboratory results reported in US20090149495A1, “COMPOUNDS” (priority 2005, published 2009).

Experiments:
mGluR1 = biological target: T1, mGluR1 (Rattus norvegicus, UniProt P23385); assay: MGluR1 receptor binding test ([3H]R214127 displacement, rat cerebellar membrane); conditions: rat cerebellar membranes; radioligand [3H]R214127 3 nM; read-out: mGlu1 Ki
T1 construct: rat cerebellar membrane preaparation was used; from tissue; host or cells: rat cerebellum (membrane preparation)
Experimental: MGluR1 receptor binding tests were performed according to modified method of Lavreysen et al. (Mol.Pharm., 2003, 63, 1082). Based on the high homology between the human and rat mGluR1 receptors, rat cerebellar membrane preaparation was used to determine the binding characteristics of reference compounds and novel compounds to the rat mGluR1. As radioligand [3H]R214127 (3 nM) was used and the nonspecific binding was determined in the presence of 1 μM of R214127.
IC-50 values were determined from displacement curves by nonlinear regression analysis and were converted by equation method of Cheng and Prusoff (Biochem. Pharmacol., 1973, 22, 3099) to Ki values.

mGluR5 = assay: MGluR5 receptor binding test ([3H]-M-MPEP displacement); design: species or system rat or human; conditions: radioligand [3H]-M-MPEP 2 nM; table does not say rat cortical membranes or hmGluR5a cells; read-out: mGlu5 Ki
Experimental: MGluR5 receptor binding was determined according to Gasparini et.al. (Bioorg. Med. Chem. Lett. 2000, 12:407-409) with modifications. Rat cerebro-cortical membrane preparation was used to determine the binding characteristics of reference compounds and novel compounds to the rat mGluR5. The A18 cell line expressing hmGluR5a (purchased from Euroscreen) was used to determine binding characteristics of the chemical compounds to the human mGluR5a receptor. As radioligand [3H]-M-MPEP (2 nM) was used. The nonspecific binding was determined in the presence of 10 μM M-MPEP.

T1 sequence (P23385 19-1199): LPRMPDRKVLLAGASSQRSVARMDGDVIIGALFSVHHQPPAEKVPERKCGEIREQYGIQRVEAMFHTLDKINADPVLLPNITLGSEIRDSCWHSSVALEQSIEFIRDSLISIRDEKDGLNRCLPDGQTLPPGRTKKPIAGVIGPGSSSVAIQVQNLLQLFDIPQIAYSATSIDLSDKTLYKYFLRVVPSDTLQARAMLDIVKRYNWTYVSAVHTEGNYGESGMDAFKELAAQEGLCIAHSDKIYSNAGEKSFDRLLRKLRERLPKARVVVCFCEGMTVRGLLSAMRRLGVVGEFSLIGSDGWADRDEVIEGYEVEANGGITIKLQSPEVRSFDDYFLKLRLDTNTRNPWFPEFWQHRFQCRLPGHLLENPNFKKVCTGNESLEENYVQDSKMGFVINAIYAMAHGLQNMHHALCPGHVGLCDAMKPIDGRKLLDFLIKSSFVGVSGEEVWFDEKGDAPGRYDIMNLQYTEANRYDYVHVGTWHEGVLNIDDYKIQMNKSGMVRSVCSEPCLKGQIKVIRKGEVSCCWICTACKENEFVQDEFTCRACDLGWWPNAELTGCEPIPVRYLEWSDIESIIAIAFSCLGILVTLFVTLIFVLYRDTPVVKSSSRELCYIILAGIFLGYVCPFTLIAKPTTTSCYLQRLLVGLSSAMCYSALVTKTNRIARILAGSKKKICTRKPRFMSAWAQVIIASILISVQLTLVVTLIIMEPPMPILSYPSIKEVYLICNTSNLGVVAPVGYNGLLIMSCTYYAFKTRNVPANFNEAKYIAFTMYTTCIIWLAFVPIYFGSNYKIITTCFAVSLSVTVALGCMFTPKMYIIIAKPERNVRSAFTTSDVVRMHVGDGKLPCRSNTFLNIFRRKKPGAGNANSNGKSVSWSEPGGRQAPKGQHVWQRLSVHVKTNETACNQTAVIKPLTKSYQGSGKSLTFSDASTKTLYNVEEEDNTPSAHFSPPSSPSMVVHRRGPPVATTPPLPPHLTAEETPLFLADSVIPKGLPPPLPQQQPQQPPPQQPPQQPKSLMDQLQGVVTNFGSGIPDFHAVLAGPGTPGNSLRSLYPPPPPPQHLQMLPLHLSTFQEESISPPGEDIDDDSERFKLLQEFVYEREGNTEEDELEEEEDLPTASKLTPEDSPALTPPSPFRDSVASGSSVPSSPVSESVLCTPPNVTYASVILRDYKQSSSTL

| SMILES | Ki (mGluR1) [nM] | Ki (mGluR5) [nM] |
| --- | --- | --- |
| O=C(OCc1ccc(F)cc1)c1sc2[nH]c(=O)ccc2c1-c1ccc(Cl)cc1 [Compound 3, 3-(4-chloro-phenyl)-6-oxo-6,7-dihydro-thieno[2,3-b]pyridine-2-carboxylic acid 4-fluoro-benzyl ester] | < 500 | < 500 |
| O=S(=O)(c1ccc(Cl)cc1)c1sc2nc(O)ccc2c1-c1ccc(Cl)cc1 [Compound 1, 2-(4-Chloro-Benzenesulfonyl)-3-(4-Chloro-Phenyl)-7H-Thieno[2,3-b]Pyridin-6-One] | > 500 | < 500 |
| Cc1cccc(S(=O)(=O)c2sc3[nH]c(=O)ccc3c2-c2ccc(Cl)cc2)c1 [Compound 4, 3-(4-chloro-phenyl)-2-(toluene-3-sulfonyl)-7H-thieno[2,3-b]pyridin-6-one] |  | > 500 |
| N#Cc1cccc(S(=O)(=O)c2sc3nc(O)ccc3c2-c2ccc(Cl)cc2)c1 [Compound 2, 3-[3-(4-chloro-phenyl)-6-oxo-6,7-dihydro-thieno[2,3-b]pyridin-2-sulfonyl]-benzonitrile] | < 500 | < 500 |
